Measured values: patent US11369127B2, “Sweetener and flavor compositions, methods of making and methods of use thereof” (EPC Natural Products Co., Ltd., priority 2018, dated 2022)
“Also recorded” adds a separate entry of the source.

How the values were obtained:
[1] = Kinetics of reaction in dependence of pH-conditions (degradation of Phe and Reb-A, Gluc, Xyl, Suc by HPLC/MS)
Method: Quantitative evaluation was performed using external standardization.
Kinetics of Reaction in Dependence of pH-Conditions

[2] = Stevia-derived MRPs with NHDC and Thaumatin, also in Redbull sugarfree (Ex. 261); parameters: species or system human; details: 150 μl sample in 100 ml Redbull sugar free
Method: 150 μl of the each sample was added to 100 ml Redbull sugar free and mixed. The taste profiles of the samples were compared. As a control, a RedBull sugar free sample without the addition of Steviaroma was used.
Before tasting the tasters discussed the upcoming series of samples and tasted samples with predetermined attributes with varying intensities to find a commonality in description. Four trained tasters blind taste tested independently all samples of a series. They were allowed to re-taste and made notes for the sensory attributes perceived including the relative intensity.
In the last step the attributes noted were discussed openly to find an acceptable description. In case that more than 1 taster disagreed with the description, the tasting was repeated.

[3] = Sensory evaluation of GSGs and SGs, Thaumatin, NHDC and combinations (Ex. 255); parameters: species or system human; details: in water; 4.5 ppm Thaumatin and/or 50 ppm GSGs and SGs, NHDC 1-5 ppm
Method: 4.5 ppm Thaumatin (equivalent to 10 ppm EPCalin) was dissolved in water. Increasing amounts of NHDC (1-5 ppm) were added to the solution and the sensory properties were evaluated.
50 ppm (GSGs and SGs) were dissolved in water. Increasing amounts of NHDC (1-5 ppm) were added to the solution and the sensory properties were evaluated.
50 ppm (GSGs and SGs) and 4.5 ppm Thaumatin (equivalent to 10 ppm EPCalin) were dissolved in water. Increasing amounts of NHDC (1-5 ppm) were added to the solution and the sensory properties were evaluated.
Sweetness intensity was rated on 5-point scale

[4] = DPPH radical-scavenging activity (Ex. 65); format: biochemical; details: iron-III reduction and DPPH radical scavenging (FIG. 49, 50); 100° C., 0-5 hours
Method: 1 mg 1,1-Diphenyl-2-picrylhydrazyl radical (DPPH)/ml ethanol, dilution to assay concentration were prepared in ethanol (40 μg/mL); Calibration samples were prepared with Ascorbic acid in a concentration of 0-10 μg/mL; as a negative control sample, water was used.
Samples in aqueous solution were used as such or diluted with water.
A 0.1 ml sample (or calibration standard) was mixed with 3.9 ml solution of DPPH (100 μMolar) and reacted while protected from light at room temperature for 30 min. Absorbance was determined at 517 nm against ethanol.
10 mM of amino acid and/or 10 mM sugar were dissolved in 10 ml 0.1 mM KH2PO4-buffer, pH=7.8.
The samples were kept at 100° C. in sealed glass vials (Pyrex 15 ml with screw caps) for 0 (before reaction), 2.5 or 5.0 hours. Thereafter the samples were transferred to an ice water bath and cooled down to room temperature. These samples were diluted 1:10 and used for the test assay for anti-oxidant potential.

O=C(O)[C@H](Cc1ccccc1)NCC(=O)[C@@H](O)[C@H](O)[C@H](O)CO [MRI (Phe-Glu)]
% formation from degraded Phe ([1]; pH = 5.5): <0.10%
% formation from degraded Phe ([1]; pH = 7.0): 0.54%
% formation from degraded Phe ([1]; pH = 8.5): 0.84%

COc1ccc(CCC(=O)c2c(O)cc(O[C@@H]3O[C@H](CO)[C@@H](O)[C@H](O)[C@H]3O[C@@H]3O[C@@H](C)[C@H](O)[C@@H](O)[C@H]3O)cc2O)cc1O [NHDC, Neohesperidin dihydrochalcone]
taste profile in sugarfree beverage [2]: improved the mouth-feel and harmony of taste impression yielding a substantially improved taste profile
sensory properties of combinations with NHDC [3]: long lasting lingering; also recorded: boosts the lingering

C=C1C[C@@]23CC[C@H]4[C@@](C)(CCC[C@@]4(C)C(=O)O[C@@H]4O[C@H](CO)[C@@H](O)[C@H](O)[C@H]4O)[C@@H]2CC[C@]1(O[C@@H]1O[C@H](CO)[C@@H](O)[C@H](O[C@@H]2O[C@H](CO)[C@@H](O)[C@H](O)[C@H]2O)[C@H]1O[C@@H]1O[C@H](CO)[C@@H](O)[C@H](O)[C@H]1O)C3 [Reb-A, Rebaudioside A]
anti-oxidant properties [4]: substantial anti-oxidant properties
